In US8338422B2, “Indolin-2-ones and aza-indolin-2-ones” (Janssen Pharmaceutica NV, priority 2007, dated 2012):

Legend:
[1] = molecular target: PLK4 (h) (Homo sapiens, UniProt O00444); test: PLK-4 human kinase assay (SPA); type: biochemical; settings: for IC50: read-out: PLK4 pIC50 (converted)
In short: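 Radiometric readout: 33P-labelled peptide captured on streptavidin SPA beads after EDTA stop, imaged by Leadseeker. Reaction ran 60 min at room temperature in Hepes pH 8.0 buffer. It contained 1 μM ATP with 2 nM [γ-33P]ATP, 10 μM biotinylated peptide and PLK4 (h) at 19 μg/ml.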

[2] = molecular target: AuroraB (h) (Homo sapiens, UniProt Q96GD4); test: Aurora-B human kinase assay (SPA); type: biochemical; settings: for IC50: read-out: AuroraB pIC50 (converted)
Sequence of AuroraB (h) (Q96GD4 whole entry): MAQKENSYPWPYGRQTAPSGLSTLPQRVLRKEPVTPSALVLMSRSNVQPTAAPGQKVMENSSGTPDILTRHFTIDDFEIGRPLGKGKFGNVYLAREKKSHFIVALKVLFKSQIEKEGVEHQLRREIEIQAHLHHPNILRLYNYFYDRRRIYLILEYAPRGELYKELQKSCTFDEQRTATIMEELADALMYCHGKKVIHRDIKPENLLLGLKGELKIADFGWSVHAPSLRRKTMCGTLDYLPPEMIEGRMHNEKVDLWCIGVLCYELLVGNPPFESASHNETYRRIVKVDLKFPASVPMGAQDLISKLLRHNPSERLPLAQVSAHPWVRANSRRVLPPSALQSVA
In short: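 Scintillation proximity assay: AuroraB (h) at 0.5 μg/ml with 3 μM biotinylated peptide, 0.5 μM ATP and 2.2 nM [γ-33P]ATP in 60 mM Hepes pH 7.5, 3 mM MgCl2, 3 mM MnCl2, 2 mM DTT. 60 min at room temperature, EDTA stop, streptavidin PVT beads read on Leadseeker.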

[3] = tested on: A2780; test: Cellular proliferation assay (Alamar blue), A2780; type: cell-based; settings: Homo sapiens, A2780, 72 h, A2780 cells, 72 hours with compound, 10% FCS, read-out: pIC50 A2780 (converted)
In short: (§1)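 Proliferation was assessed over 72 h of compound treatment, following 24 h of seeding without compound, under 10% FCS, 37° C. and 5% CO2. Fluorescent resazurin product was measured and compared with control cells.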

[4] = tested on: SKOV3; test: Cellular proliferation assay (Alamar blue), SKOV3; type: cell-based; settings: 72 hours with compound, 10% FCS; for IC50: Homo sapiens, SK-OV-3, SKOV3 cells, read-out: pIC50 SKOV3 (converted); for pIC50 SKOV3: SKOV3 cells
Experimental: (§2) […] functional properties of these compounds was tested in cellular proliferation assays on a panel of different cell lines in the presence of 10% FCS serum (37° C. and 5% (v/v) CO2). In a first step these cells were seeded and incubated for 24 hours in the absence of compound. In the second step the cells were incubated for 72 hours with the compounds to be tested for 72 hours. The viable cell number was finally assessed in a standard Alamar blue cell viability assay.
(§3) The viable cell number was assessed by incubation for either 4 h (HCT-116, H1299, H460) 6 h (SKOV3, HT29, U87-MG, Colo205) or 24 h (A2780, PC3, MDA-MB-231, A549, MCF-7) with Alamar blue (Resazurin 9 μg/ml, K-Ferrocyanide 90 μM K-Ferricyanide 90 μM) and the converted fluorescent product was quantified on a fluorescent plate readed (544 nm/590 nm). Effect of the compounds is calculated as of on control cells.

[5] = tested on: HT-29; test: Cellular proliferation assay (Alamar blue), HT-29; type: cell-based; settings: HT-29 cells, 72 hours with compound, 10% FCS; for IC50: Homo sapiens, read-out: pIC50 HT-29 (converted)
Experimental: as §2, §3

[6] = tested on: HCT-116; test: Cellular proliferation assay (Alamar blue), HCT-116; type: cell-based; settings: Homo sapiens, HCT-116, 72 h, HCT-116 cells, 72 hours with compound, 10% FCS, read-out: pIC50 HCT-116 (converted)
In short: as §1

[7] = tested on: Colo205; test: Cellular proliferation assay (Alamar blue), Colo205; type: cell-based; settings: 72 hours with compound, 10% FCS; for IC50: Homo sapiens, COLO 205, Colo205 cells, read-out: pIC50 Colo205 (converted); for pIC50 Colo205: Colo205 cells
Experimental: as §2, §3

[8] = tested on: A549; test: Cellular proliferation assay (Alamar blue), A549; type: cell-based; settings: A549 cells, 72 hours with compound, 10% FCS; for IC50: Homo sapiens, read-out: pIC50 A549 (converted)
Experimental: as §2, §3

[9] = tested on: H460; test: Cellular proliferation assay (Alamar blue), H460; type: cell-based; settings: 72 hours with compound, 10% FCS; for IC50: Homo sapiens, NCI-H460, H460 cells, read-out: pIC50 H460 (converted); for pIC50 H460: H460 cells
Experimental: as §2, §3

[10] = tested on: MDA/MB231; test: Cellular proliferation assay (Alamar blue), MDA/MB231; type: cell-based; settings: Homo sapiens, MDA-MB-231, 72 h, MDA/MB231 cells, 72 hours with compound, 10% FCS, read-out: pIC50 MDA/MB231 (converted)
In short: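 Seed cells, 24 h, no compound; add compound, 72 h, 10% FCS, 37° C./5% CO2; add resazurin 9 μg/ml with K-ferrocyanide and K-ferricyanide 90 μM each (4 h H460, 24 h MDA-MB-231); read fluorescence 544/590 nm; effect vs control cells.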

[11] = tested on: MCF-7; test: Cellular proliferation assay (Alamar blue), MCF-7; type: cell-based; settings: 72 hours with compound, 10% FCS; for IC50: Homo sapiens, MCF7, MCF-7 cells, read-out: pIC50 MCF-7 (converted); for pIC50 MCF-7: MCF-7 cells
Experimental: as §2, §3

[12] = tested on: DU-145; test: Cellular proliferation assay (Alamar blue), DU-145; type: cell-based; settings: DU-145 cells, 72 hours with compound, 10% FCS; for IC50: Homo sapiens, read-out: pIC50 DU-145 (converted)
Experimental: as §2, §3

[13] = tested on: A431; test: Cellular proliferation assay (Alamar blue), A431; type: cell-based; settings: 72 hours with compound, 10% FCS; for IC50: Homo sapiens, A-431, A431 cells, read-out: pIC50 A431 (converted); for pIC50 A431: A431 cells
Experimental: as §2, §3

[14] = tested on: U87MG; test: Cellular proliferation assay (Alamar blue), U87MG; type: cell-based; settings: Homo sapiens, U-87 MG, 72 h, U87MG cells, 72 hours with compound, 10% FCS, read-out: pIC50 U87MG (converted)
In short: as §1

[15] = tested on: PC-3; test: Cellular proliferation assay (Alamar blue), PC-3; type: cell-based; settings: PC-3 cells, 72 hours with compound, 10% FCS; for IC50: Homo sapiens, PC-3, 72 h, read-out: pIC50 PC-3 (converted)
In short: as §1

[16] = tested on: SK-N-SH; test: Cellular proliferation assay (Alamar blue), SK-N-SH; type: cell-based; settings: SK-N-SH cells, 72 hours with compound, 10% FCS; for IC50: Homo sapiens, read-out: pIC50 SK-N-SH (converted)
Experimental: as §2, §3

[17] = molecular target: GSK3β (h) (Homo sapiens, UniProt P49841); test: GSK-3β human kinase assay (SPA); type: biochemical
Sequence of GSK3β (h) (P49841 whole entry): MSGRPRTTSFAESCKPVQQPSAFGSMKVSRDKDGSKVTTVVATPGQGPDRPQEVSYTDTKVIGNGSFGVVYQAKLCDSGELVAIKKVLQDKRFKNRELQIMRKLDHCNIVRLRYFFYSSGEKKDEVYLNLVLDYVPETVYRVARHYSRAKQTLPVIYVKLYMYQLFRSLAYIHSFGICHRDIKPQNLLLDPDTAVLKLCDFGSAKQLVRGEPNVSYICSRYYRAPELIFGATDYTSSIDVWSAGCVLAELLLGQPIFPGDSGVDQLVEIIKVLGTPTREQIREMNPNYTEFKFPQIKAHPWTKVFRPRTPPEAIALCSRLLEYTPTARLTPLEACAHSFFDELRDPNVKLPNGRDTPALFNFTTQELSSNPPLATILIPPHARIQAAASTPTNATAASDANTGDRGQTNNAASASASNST
In short: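 Radiometric SPA read-out: after EDTA stop, biotinylated 33P-labelled peptide bound streptavidin PVT beads and was imaged on Leadseeker. Reaction: 60 min, room temperature, GSK3β (h) at 1 μg/ml, 1 μM substrate peptide, 1 μM ATP with 2 nM [γ-33P]ATP, Tris pH 7.4/MgCl2/DTT buffer.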

[18] = molecular target: CDK1/CyclinB (h) (Homo sapiens, UniProt P06493); test: CDK1/CyclinB human kinase assay (FRET); type: biochemical
Sequence of CDK1/CyclinB (h) (P06493 whole entry): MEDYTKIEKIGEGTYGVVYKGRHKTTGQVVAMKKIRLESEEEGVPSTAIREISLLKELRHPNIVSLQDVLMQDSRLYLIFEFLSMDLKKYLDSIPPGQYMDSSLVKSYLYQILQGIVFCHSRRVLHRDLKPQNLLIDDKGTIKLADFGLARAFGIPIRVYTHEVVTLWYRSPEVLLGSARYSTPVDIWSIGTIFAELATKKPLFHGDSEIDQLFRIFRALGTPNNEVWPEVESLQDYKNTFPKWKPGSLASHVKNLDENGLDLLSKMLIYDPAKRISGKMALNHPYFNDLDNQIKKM
Sequence of CDK1/CyclinB (h) (P14635 whole entry partner): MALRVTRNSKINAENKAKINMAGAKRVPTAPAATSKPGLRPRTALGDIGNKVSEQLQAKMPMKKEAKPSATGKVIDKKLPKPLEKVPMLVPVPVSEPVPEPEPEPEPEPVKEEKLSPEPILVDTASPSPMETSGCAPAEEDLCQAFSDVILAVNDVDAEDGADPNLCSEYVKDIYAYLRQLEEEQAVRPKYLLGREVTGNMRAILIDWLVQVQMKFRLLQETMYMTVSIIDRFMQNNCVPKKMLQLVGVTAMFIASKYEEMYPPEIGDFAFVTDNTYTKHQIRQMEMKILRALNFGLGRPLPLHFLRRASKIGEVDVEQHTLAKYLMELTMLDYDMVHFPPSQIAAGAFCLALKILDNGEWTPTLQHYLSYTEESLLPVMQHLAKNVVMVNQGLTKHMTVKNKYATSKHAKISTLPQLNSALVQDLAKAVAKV
In short: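 Z'-LYTE FRET format: 0.2 μg/ml enzyme with 2 μM Ser/Thr peptide 12 and 10 μM ATP in 50 mM Hepes pH 7.5, 10 mM MgCl2, 1 mM EGTA, 0.01% Brij-35, 60 min at room temperature. Protease development 60 min; coumarin/fluorescein emission ratio (460/538 nm, excitation 390 nm) reports phosphorylation.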

Sequence of PLK4 (h) (O00444 whole entry): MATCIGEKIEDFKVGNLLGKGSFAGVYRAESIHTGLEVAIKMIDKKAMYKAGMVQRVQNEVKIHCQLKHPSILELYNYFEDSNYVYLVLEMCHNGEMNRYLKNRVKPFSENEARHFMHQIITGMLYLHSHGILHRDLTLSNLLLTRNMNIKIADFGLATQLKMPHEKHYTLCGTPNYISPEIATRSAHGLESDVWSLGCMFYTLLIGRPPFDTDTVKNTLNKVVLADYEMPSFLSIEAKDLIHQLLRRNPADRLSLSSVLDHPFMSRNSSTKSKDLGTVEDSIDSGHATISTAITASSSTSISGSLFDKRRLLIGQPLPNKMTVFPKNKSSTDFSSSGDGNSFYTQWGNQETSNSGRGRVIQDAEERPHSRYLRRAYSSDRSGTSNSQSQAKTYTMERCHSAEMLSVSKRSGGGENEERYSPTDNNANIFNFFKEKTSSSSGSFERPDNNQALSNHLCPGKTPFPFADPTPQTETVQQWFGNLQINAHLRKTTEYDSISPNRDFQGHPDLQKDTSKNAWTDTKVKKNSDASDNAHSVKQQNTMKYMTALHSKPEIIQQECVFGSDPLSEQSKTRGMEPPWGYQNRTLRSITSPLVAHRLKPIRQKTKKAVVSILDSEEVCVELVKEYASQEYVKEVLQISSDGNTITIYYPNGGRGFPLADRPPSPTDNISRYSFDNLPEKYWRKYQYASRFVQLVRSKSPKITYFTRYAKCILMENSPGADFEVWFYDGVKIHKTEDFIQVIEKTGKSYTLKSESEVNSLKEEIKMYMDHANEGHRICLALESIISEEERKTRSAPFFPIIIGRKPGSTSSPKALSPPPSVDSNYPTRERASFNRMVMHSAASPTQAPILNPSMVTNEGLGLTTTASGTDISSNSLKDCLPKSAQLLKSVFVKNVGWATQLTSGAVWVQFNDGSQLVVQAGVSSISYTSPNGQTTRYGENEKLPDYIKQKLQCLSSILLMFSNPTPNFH

IC50 [1] [µM]	IC50 [2] [µM]	IC50 [3] [µM]	IC50 [4] [µM]	IC50 [5] [µM]	IC50 [6] [µM]	IC50 [7] [µM]	IC50 [8] [µM]	IC50 [9] [µM]	IC50 [11] [µM]	IC50 [12] [µM]	IC50 [13] [µM]	IC50 [14] [µM]	IC50 [15] [µM]	IC50 [16] [µM]	SMILES	IC50 [10] [µM]	further results
> 10	> 10	> 10	> 10	> 10	> 10	> 10	> 10	> 10	> 10	> 10	> 10	> 10	> 10	> 10	O=C1Nc2ncnc3c2C1=CNc1cc(ccc1Cl)OCCCCC(=O)N1CCN3CC1 (mixture of isomers) [Compound 13]	> 10	
5.5	> 10	> 10	> 10	> 10	> 10	> 10	> 10	> 10	> 10	> 10	> 10	> 10	> 10	> 10	O=C1Nc2ncnc3c2C1=CNc1ccc(cc1)S(=O)(=O)NCCCCC(=O)N1CCN3CC1 (mixture of isomers) [Compound 15]	> 10	
1.62	> 10	> 10	4.68	> 10	> 10	> 10	3.47	> 10	8.13	> 10	> 10	7.76	10.7	3.31	COc1ccc2cc1OCCCC(=O)N1CCN(CC1)c1ncnc3c1/C(=C/N2)C(=O)N3 [Compound 17]	> 10	

Further lines, the compound ahead of its results:

SMILES	IC50 [1] [µM]	IC50 [2] [µM]	IC50 [3] [µM]	IC50 [4] [µM]	IC50 [5] [µM]	IC50 [6] [µM]	IC50 [7] [µM]	IC50 [8] [µM]	IC50 [9] [µM]	IC50 [11] [µM]	IC50 [12] [µM]	IC50 [13] [µM]	IC50 [14] [µM]	IC50 [15] [µM]	IC50 [16] [µM]	IC50 [10] [µM]	further results
CC(C)N1CCCC(=O)N2CCN(CC2)c2ncnc3c2C(=CNc2ccc(F)c(c2)C1)C(=O)N3 (mixture of isomers) [Compound 30]																	PLK4 pIC50 [1]: <5; pIC50 SKOV3 [4]: <5; pIC50 HT-29 [5]: <5; pIC50 Colo205 [7]: <5; pIC50 A549 [8]: <5; pIC50 H460 [9]: <5; pIC50 MCF-7 [11]: <5; pIC50 DU-145 [12]: <5; pIC50 A431 [13]: <5; pIC50 PC-3 [15]: <5; pIC50 SK-N-SH [16]: <5
COc1ccc2cc1OCCCC(=O)N(C(C)C)CCCCN(C)c1ncnc3c1C(=CN2)C(=O)N3 (mixture of isomers) [Compound 33]																	PLK4 pIC50 [1]: 5.27; AuroraB pIC50 [2]: 5; GSK3B pIC50 [17]: 5.33; CDK1 pIC50 [18]: 5.14; pIC50 SKOV3 [4]: <5; pIC50 HT-29 [5]: <5; pIC50 Colo205 [7]: <5; pIC50 A549 [8]: <5; pIC50 H460 [9]: <5; pIC50 MCF-7 [11]: 4.99; pIC50 DU-145 [12]: <5; pIC50 A431 [13]: <5; pIC50 PC-3 [15]: <5; pIC50 SK-N-SH [16]: 5.27
CC(C)N1CCCCCC(=O)N2CCN(CC2)c2ncnc3c2/C(=C/Nc2ccc(F)c(c2)C1)C(=O)N3 [Compound 28]	> 10	> 10		> 10	> 10		> 10	> 10	> 10	> 10	> 10	> 10		> 10	> 10		IC50 ([17]; read-out: GSK3B pIC50 (converted)): > 10 µM; IC50 ([18]; read-out: CDK1 pIC50 (converted)): > 10 µM
COc1ccc2cc1OCCCC(=O)N(C(C)C)CCN(C)c1ncnc3c1/C(=C/N2)C(=O)N3 [Compound 32]	1.05			3.31	2.51		2.04	2.14	2.34	1.58	3.98	1.32		1	1.62		
COc1ccc2cc1OCCCC(=O)N(C)CCN(C)C1CCN(CC1)c1ncnc3c1/C(=C/N2)C(=O)N3 [Compound 34]	> 10			> 10	~8.32		> 10	> 10		> 10	> 10				5.25		
